# Experimental data taken from patent US20200255884A1, “METHOD OF DETECTION OF DNA END(S) AND ITS USE” (INTODNA SP. Z O.O., priority 2017, published 2020).
# System: HeLa 21-4 cells
# Test: Procedure 1 on HeLa cells in suspension with subsequent isolation of chromatin, fluorescence spectrophotometer
# Type: cell-based
# Details: H2O2 4 mM, 30 minutes
# Description: In this Example, HeLa 21-4 cells (obtained from P.R. Cook, University of Oxford) were seeded on 6-well plates and cultured for 48 hours in DMEM supplemented with 10% FBS until the culture reached 100% confluency (number of cells: 1.2×10^6 per 1 well). Next, cells were treated with the DNA damaging agent H2O2 which was added directly to the growth medium (final concentration: 4 mM). The cells were incubated at 37° C. for 30 minutes in the standard cell culture incubator with CO2 level control. The control, untreated cells and the damaged cells (H2O2) were then harvested using 0.5 ml trypsin and transferred to 1.5 ml eppendorf tubes. Afterwards, trypsin was inactivated by adding 0.5 ml DMEM supplemented with 10% FBS. Subsequently, cells were spun down in the table top centrifuge (Eppendorf centrifuge, 5417 C, rotor: F45-30-11) (1700 rpm, 5 minutes, room temperature). The cell pellet was resuspended in PBS and again spun down (this washing step was repeated twice). When the supernatant PBS was discarded, cells were resuspended in the remaining droplet of PBS. Subsequently, ice-cold 70% Et(OH) was added dropwise, and cells were incubated in Et(OH) for 30 minutes in −20° C. Then, the cells were treated according to Procedure 1, wherein steps 1, 3, 4, 9 were omitted, and every washing step and every incubation were followed by centrifugation. BrdU was linked to free ends of DNA using TdT enzyme using APO-BRDU kit (Phoenix Flow Systems, AU: 1001) according to the supplier's instructions. […] The fluorescence signal was generated using Duolink® In Situ Detection Reagents Green (Sigma, DUO92014). […]
# The level of fluorescence intensity of the cell extract obtained from untreated control cells and the H2O2 damaged cells was measured using a fluorescence spectrophotometer (Hitachi F-7000 supplied with Xe lamp). The fluorescence intensity was measured for 30 s (excitation 480 nm, emission 520 nm).
smiles,measurement,setting,value
OO [H2O2],fluorescence intensity per 1 ng of DNA,cell extract,3.2±0.3×10^−4 a.u.
same,flurescence signal per 1 ng of DNA,cell extract,3.2 ± 0.3 × 10^−4 a.u./ng
same,fluorescence signal,"extract volume 40 μl, excitation 480 nm, emission 520 nm",0.046 ± 0.005 a.u.
